# Results published in PMC6010107, “Identification of new allosteric sites and modulators of AChE through computational and experimental tools” (Journal of Enzyme Inhibition and Medicinal Chemistry, 2018).
# Like-named read-outs stand apart in the source and are kept apart here.
# How the values were obtained:
# [1] = target: T1, AChE (Cholinesterase, acetyl human recombinant) (Homo sapiens, UniProt P22303); test: biochemical; type: biochemical
# T1 construct: purchased Sigma Chemical Co., Madrid, Spain
# T1 sequence (P22303 32-614): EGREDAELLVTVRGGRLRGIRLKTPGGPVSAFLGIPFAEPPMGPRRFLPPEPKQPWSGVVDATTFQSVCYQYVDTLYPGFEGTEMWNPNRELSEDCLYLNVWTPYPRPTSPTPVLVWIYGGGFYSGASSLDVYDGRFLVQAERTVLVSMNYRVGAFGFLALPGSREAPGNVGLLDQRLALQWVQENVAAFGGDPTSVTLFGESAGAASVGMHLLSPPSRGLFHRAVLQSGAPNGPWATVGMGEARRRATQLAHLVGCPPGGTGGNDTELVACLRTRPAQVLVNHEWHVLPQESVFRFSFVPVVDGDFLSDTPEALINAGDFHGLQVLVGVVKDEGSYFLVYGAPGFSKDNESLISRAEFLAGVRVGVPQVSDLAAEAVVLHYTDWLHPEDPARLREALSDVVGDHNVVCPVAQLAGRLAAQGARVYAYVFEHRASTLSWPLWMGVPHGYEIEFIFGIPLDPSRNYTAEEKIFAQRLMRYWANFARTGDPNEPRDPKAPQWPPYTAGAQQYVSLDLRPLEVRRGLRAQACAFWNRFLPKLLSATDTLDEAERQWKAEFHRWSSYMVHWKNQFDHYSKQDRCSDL
# Description: (§1) The method was adapted from Ellman et al.[47] The assay solution consisted of 0.1 M phosphate buffer pH 8, […] 5,5′-dithiobis(2-nitrobenzoic acid) (DTNB, Ellman’s reagent), 0.05 unit/ml AChE (Sigma Chemical Co., Madrid, Spain, Cholinesterase, acetyl human recombinant), and […] acetylthiocholine iodide as the substrate of the enzymatic reaction. The compounds tested were added to the assay solution and the absorbance changes at 412 nm were recorded for 5 min with a UV/Vis Microplate and cuvette Spectrophotometer, Thermo Electron Type, Multiskan Spectrum. The reaction rates were compared, and the per cent inhibition due to the presence of test compounds was calculated. […] All the experiments were performed in triplicate.
# AChE [2] = target: T2, AChE (Homo sapiens, UniProt P22303); test: Kinetic study of AChE inhibition (Lineweaver-Burk); type: biochemical; conditions: Lineweaver-Burk plots, four substrate and three inhibitor concentrations
# T2 construct: purchased Sigma Chemical Co., Madrid, Spain
# T2 sequence (P22303 32-614): as above
# Description: To investigate the mechanism of action of the compounds on AChE, a kinetic analysis was performed. The experiments were carried out using combinations of four substrate concentrations, and three inhibitor concentrations. Double-reciprocal Lineweaver–Burk plotting of the data obtained, in which each point is mean of three different experiments, were analysed.
# Mixed inhibitors cause intersects above or below the x-axis.
# AChE [3] = target: T2, AChE; conditions: cited from earlier work
# AChE [4] = target: T2, AChE; test: AChE inhibition in presence of the competitive inhibitor JTE-907 (cooperative activities); type: biochemical; design: key to ΔISC035 (combination minus SC035 alone): difference in % AChE inhibition (combination minus SC035 alone); conditions: for Effect of combining with JTE-907 on AChE inhibition: sum of activities with JTE-907
# Description: as §1
# Clearly, both compounds bind to AChE at an allosteric site. […] If our hypothesis is right, the binding of VP2.33 and SC035 to the allosteric site 3 in presence of JTE-907 should show a cooperative behaviour in terms of inhibition of the AChE.
# [5] = Table S1 first grid, JTE907 2.5 μM + SC035 25 μM
# [6] = Table S1 first grid, JTE907 5 μM + SC035 50 μM
# [7] = Table S1 first grid, JTE907 20 μM + SC035 25 μM
# [8] = Table S1 first grid, JTE907 20 μM + SC035 50 μM
# [9] = Table S1 second grid, SC035 25 μM + JTE907 5 μM
# [10] = Table S1 second grid, SC035 50 μM + JTE907 2.5 μM
# [11] = Table S1 second grid, SC035 50 μM + JTE907 5 μM
# [12] = Table S1 second grid, SC035 70 μM + JTE907 2.5 μM
# [13] = Table S1 second grid, SC035 70 μM + JTE907 5 μM
# [14] = Table 4, compounds selected to bind site 3, read-out: IC50
# [15] = compound alone, read-out: Individual inhibition of AChE
compound,measurement,setting,value
"O=C(/C=C/c1ccc(O)c(O)c1)O[C@H](Cc1ccc(O)c(O)c1)C(=O)O [Rosmarinic acid, reference compound]",IC50,"[1]; IC50 (μM), Table 3, compounds selected to bind site 2",> 10 µM
same,inhibition at 10 µM,[1]; read-out: % of inhibition at 10 μM,26%
NC1=NC(=O)C2N=C(c3ccccc3)C(c3ccccc3)=NC2=N1 (stereo not drawn) [SC251],IC50,"[1]; Table 3, compounds selected to bind site 2, read-out: IC50",2.76 ± 0.25 µM
same,Mechanism of inhibition versus substrate ACh,AChE [2],non-competitive-mixed
"CCCCCOc1c(OC)ccc2cc(C(=O)NCc3ccc4c(c3)OCO4)c(=O)[nH]c12 [JTE907, reference compound]",Mechanism of AChE inhibition,AChE [3],pure competitive inhibitor
same,ΔIJTE907 (combination minus JTE907 alone),AChE [4]; JTE907 5 μM + VP2.33 25 μM,ΔIJTE907 = 19.86
same,ΔIJTE907 (combination minus JTE907 alone),AChE [4]; JTE907 5 μM + VP2.33 50 μM,ΔIJTE907 = 44.53
same,ΔIJTE907 (combination minus JTE907 alone),AChE [4]; JTE907 10 μM + VP2.33 25 μM,ΔIJTE907 = 11.79
same,ΔIJTE907 (combination minus JTE907 alone),AChE [4]; JTE907 20 μM + VP2.33 25 μM,ΔIJTE907 = 15.66
same,ΔIJTE907 (combination minus JTE907 alone),AChE [4]; JTE907 20 μM + VP2.33 50 μM,ΔIJTE907 = 24.96
same,ΔIJTE907 (combination minus JTE907 alone),AChE [4]; [5],"21,5"
same,ΔIJTE907 (combination minus JTE907 alone),"AChE [4]; Table S1 first grid, JTE907 2.5 μM + SC035 50 μM",33
same,ΔIJTE907 (combination minus JTE907 alone),AChE [4]; [6],"19,52"
same,ΔIJTE907 (combination minus JTE907 alone),AChE [4]; [7],"-3,46"
same,ΔIJTE907 (combination minus JTE907 alone),AChE [4]; [8],"-3,34"
same,ΔIJTE907 (combination minus JTE907 alone),"AChE [4]; Table S1 second grid, SC035 25 μM + JTE907 2.5 μM","18,41"
same,ΔIJTE907 (combination minus JTE907 alone),AChE [4]; [9],"13,78"
same,ΔIJTE907 (combination minus JTE907 alone),AChE [4]; [10],"33,91"
same,ΔIJTE907 (combination minus JTE907 alone),AChE [4]; [11],"17,2"
same,ΔIJTE907 (combination minus JTE907 alone),AChE [4]; [12],"48,02"
same,ΔIJTE907 (combination minus JTE907 alone),AChE [4]; [13],"20,33"
same,Individual inhibition of AChE,"AChE [4]; compound alone, 2.5 μM","14,09±2,85%"
same,Individual inhibition of AChE,"AChE [4]; compound alone, 5 μM","34,22±1,13% and JTE907 5μM (30.34 ± 2.85%)"
same,Individual inhibition of AChE,"AChE [4]; compound alone, 10 μM",JTE907 10 μM (56.78 ± 1.35%)
same,Individual inhibition of AChE,"AChE [4]; compound alone, 20 μM","65,78±2,37% and JTE907 20 μM (65.10 ± 2.37%)"
OCCNc1nc(-c2cccc3ccccc23)[n+](-c2ccccc2)s1 [VP2.33],IC50,[1]; [14],49.6 ± 1.5 µM
same,Mechanism of inhibition versus substrate ACh,AChE [2],non-competitive inhibition
same,ΔIVP2.33 (combination minus VP2.33 alone),AChE [4]; JTE907 5 μM + VP2.33 50 μM,ΔIVP2.33 = 17.16
same,ΔIVP2.33 (combination minus VP2.33 alone),AChE [4]; JTE907 10 μM + VP2.33 25 μM,ΔIVP2.33 = 41.29
same,ΔIVP2.33 (combination minus VP2.33 alone),AChE [4]; JTE907 10 μM + VP2.33 50 μM,ΔIVP2.33 = 27.71
same,ΔIVP2.33 (combination minus VP2.33 alone),AChE [4]; JTE907 20 μM + VP2.33 25 μM,ΔIVP2.33 = 53.48
same,ΔIVP2.33 (combination minus VP2.33 alone),AChE [4]; JTE907 20 μM + VP2.33 50 μM,ΔIVP2.33 = 32.35
same,inhibition at 25 µM,AChE [4]; [15],27.3%
same,inhibition at 50 µM,AChE [4]; [15],57.7%
same,Effect of combining with JTE-907 on AChE inhibition,AChE [4],an effect of cooperative activities
O=C(CN1CCCC1)NN1c2ccccc2Sc2ccc(Cl)cc21 [SC035],IC50,[1]; [14],42.1 ± 4.3 µM
same,Mechanism of inhibition versus substrate ACh,AChE [2],non-competitive inhibition
same,ΔISC035 (combination minus SC035 alone),AChE [4]; [5],"-6,74"
same,ΔISC035 (combination minus SC035 alone),"AChE [4]; Table S1 first grid, JTE907 5 μM + SC035 25 μM","2,26"
same,ΔISC035 (combination minus SC035 alone),AChE [4]; [6],"-4,98"
same,ΔISC035 (combination minus SC035 alone),AChE [4]; [7],"19,99"
same,ΔISC035 (combination minus SC035 alone),AChE [4]; [8],"3,72"
same,ΔISC035 (combination minus SC035 alone),AChE [4]; [9],"5,67"
same,ΔISC035 (combination minus SC035 alone),AChE [4]; [10],"-10,72"
same,ΔISC035 (combination minus SC035 alone),AChE [4]; [11],"-7,3"
same,ΔISC035 (combination minus SC035 alone),AChE [4]; [12],"-13,21"
same,ΔISC035 (combination minus SC035 alone),AChE [4]; [13],"-20,77"
same,inhibition at 25 µM,AChE [4]; [15],42.3%
same,inhibition at 50 µM,AChE [4]; [15],58.7%
same,inhibition at 70 µM,"AChE [4]; compound alone, 70 μM, read-out: Individual inhibition of AChE",75.3%
same,Effect of combining with JTE-907 on AChE inhibition,AChE [4],no addition of activities
